Tests used:
[1] = biological target: human serum albumin (HSA) (Homo sapiens, UniProt P02768); test: Evaluation of binding to albumin (HSA solution, PBS control); settings: left to stand in HSA solution (45 mg/mL)
Procedure: Thereafter, the reaction liquids were added to a spin column (Sephadex G-100; manufactured by Cytiva), and centrifuged at 1500×g at 4° C. for 2 minutes. After separation, the radioactivity for each of the column and the eluate was measured with a gamma counter.
When a compound to be evaluated binds to albumin to form a composite, the compound passes through the column because of the increased molecular size.
As in Examples described above, PBS and human albumin were used to evaluate binding to albumin.
Thereafter, the reaction liquid was added to a spin column (Sephadex G-50; manufactured by Cytiva), and centrifuged at 1500×g at 4° C. for 2 minutes. After separation, the radioactivity of the column and the eluate was measured with a gamma counter.

[2] = system: LNCaP tumor-transplanted mouse; test: Internal radioactivity distribution using LNCaP tumor-transplanted mouse; format: in vivo
Procedure: (§1) The animal test was performed in compliance with the guidelines of Kyoto University Animal Experiment Committee. Male CB17/IcrJcl-Prkdc^scid mice were purchased from CLEA Japan, Inc. The animals were kept under 12 h/12 h, day/night cycle conditions and fed ad libitum with food and water. LNCaP cells (1.0×10^7 cells/mouse) or PC-3 cells (1.0×10^7 cells/mouse) were suspended in a mixture of PBS and Matrigel manufactured by Corning Life Sciences (1:1, 150 μL) and the suspension was subcutaneously transplanted to the right shoulder of mice under isoflurane anesthesia. Thereafter, the mice were kept for 40 to 60 days.
LNCaP or PC-3 tumor-implanted mice were administered saline solutions (185 kBq, 100 μL) of [^111In]In-PSMA-DA1 or [^111In]In-PSMA-DB from the tail vein (n=3 each). Mice were euthanized 1, 4, 24, 48, 96, and 192 hours after administration. Thereafter, blood and each organ were recovered, and the mass and radioactivity of the organs were measured.
The percentage (% ID) of the radioactivity amount to the administered radioactivity amount (injected dose) is shown as the value (% ID/g) divided by the blood mass or the organ mass (g).
LNCaP tumor-implanted mice prepared by the same method as in Example 1-1 were administered a saline solution (241 kBq/100 μL) of [^111In]In-PtDA from the tail vein (n=3). Mice were euthanized 1, 24, and 48 hours after administration. Thereafter, blood and each organ were recovered, and the mass and radioactivity of the organs were measured.
LNCaP tumor-implanted mice prepared by the same method as in Example 1-1 were administered a saline solution (259 kBq/100 μL each) of each of the radiolabeled compounds in Examples 3-1 to 3-3 or Comparative Examples 2-1 to 2-2 from the tail vein (n=2 to 3). Mice were euthanized 1, 4, 24, 48, 96, and 192 hours after administration. Thereafter, blood and each organ were recovered, and the mass and radioactivity of the organs were measured.
as §1, with “LNCaP cells (4.3×10^6 cells/mouse) or” for “LNCaP cells (1.0×10^7 cells/mouse) or”, “PC-3 cells (3.3×10^6 cells/mouse) were” for “PC-3 cells (1.0×10^7 cells/mouse) were”, “shoulder of CB17/IcrJcl-Prkdc^scid mice under” for “shoulder of mice under”
Mice were euthanized 1, 4, 24, 48, 96, and 192 hours after administration. Thereafter, blood and each organ were recovered, and the mass and radioactivity of the organs were measured.
The results are shown in Table 12 (Mean value±standard deviation, n=3).

Sequence of human serum albumin (HSA) (P02768 25-609): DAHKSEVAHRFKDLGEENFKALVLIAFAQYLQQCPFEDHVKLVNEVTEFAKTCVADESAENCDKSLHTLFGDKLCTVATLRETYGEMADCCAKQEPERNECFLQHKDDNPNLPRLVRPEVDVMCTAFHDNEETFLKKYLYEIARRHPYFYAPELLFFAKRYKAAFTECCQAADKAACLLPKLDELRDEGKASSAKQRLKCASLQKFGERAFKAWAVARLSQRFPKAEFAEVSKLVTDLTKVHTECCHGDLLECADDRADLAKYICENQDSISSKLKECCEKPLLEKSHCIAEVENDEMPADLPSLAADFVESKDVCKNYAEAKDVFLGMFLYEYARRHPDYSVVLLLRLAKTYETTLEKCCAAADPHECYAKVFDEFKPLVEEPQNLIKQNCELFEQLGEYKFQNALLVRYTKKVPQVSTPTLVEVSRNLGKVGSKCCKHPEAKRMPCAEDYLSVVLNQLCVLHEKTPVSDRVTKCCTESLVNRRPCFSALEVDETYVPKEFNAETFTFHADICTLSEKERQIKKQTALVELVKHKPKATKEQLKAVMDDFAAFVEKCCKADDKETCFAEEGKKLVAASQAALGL

## O=C([O-])CN(Cc1cccc(C(=O)[O-])n1)C[C@H](Cc1ccc(NC(=O)[C@H](CCCCNC(=O)CCC(=O)NCCCC[C@H](NC(=O)N[C@@H](CCC(=O)O)C(=O)O)C(=O)O)NC(=O)COCCOCCOCC(=O)N[C@@H](CCCCNC(=O)CCCc2ccc(I)cc2)C(=O)O)cc1)N(CC(=O)[O-])Cc1cccc(C(=O)[O-])n1.[111In+3] [[^111In]In-Octapa-3]
[1]
  radioactivity in the eluate (in words): significantly higher
[2]; 1 h after administration
  Blood: 27.2 ± 2.92 % ID/g
  Brain: 0.40 ± 0.05 % ID/g
  Heart: 6.53 ± 0.66 % ID/g
  Intestine: 2.60 ± 0.48 % ID/g
  Kidney: 57.1 ± 17.4 % ID/g
  LNCaP Tumor: 7.79 ± 1.11 % ID/g
  Liver: 4.32 ± 0.40 % ID/g
  Lung: 16.7 ± 1.41 % ID/g
  Muscle: 1.51 ± 0.23 % ID/g
  Pancreas: 2.59 ± 0.26 % ID/g
  Spleen: 8.56 ± 0.95 % ID/g
  Stomach (% ID): 0.49 ± 0.04 % ID
[2]; 4 h after administration
  Blood: 19.3 ± 3.84 % ID/g
  Brain: 0.31 ± 0.07 % ID/g
  Heart: 5.98 ± 0.93 % ID/g
  Intestine: 3.23 ± 0.18 % ID/g
  Kidney: 100 ± 6.33 % ID/g
  LNCaP Tumor: 11.3 ± 2.39 % ID/g
  Liver: 3.36 ± 0.39 % ID/g
  Lung: 14.1 ± 2.06 % ID/g
  Muscle: 1.26 ± 0.18 % ID/g
  Pancreas: 2.17 ± 0.15 % ID/g
  Spleen: 7.42 ± 0.88 % ID/g
  Stomach (% ID): 0.78 ± 0.28 % ID
[2]; 24 h after administration
  Blood: 7.20 ± 0.50 % ID/g
  Brain: 0.16 ± 0.01 % ID/g
  Heart: 2.50 ± 0.17 % ID/g
  Intestine: 1.23 ± 0.28 % ID/g
  Kidney: 26.4 ± 2.50 % ID/g
  LNCaP Tumor: 8.04 ± 0.38 % ID/g
  Liver: 1.73 ± 0.09 % ID/g
  Lung: 5.85 ± 0.39 % ID/g
  Muscle: 0.61 ± 0.04 % ID/g
  Pancreas: 1.24 ± 0.16 % ID/g
  Spleen: 2.87 ± 0.40 % ID/g
  Stomach (% ID): 0.25 ± 0.08 % ID
[2]; 48 h after administration
  Blood: 3.88 ± 1.13 % ID/g
  Brain: 0.12 ± 0.02 % ID/g
  Heart: 1.37 ± 0.18 % ID/g
  Intestine: 0.62 ± 0.14 % ID/g
  Kidney: 17.3 ± 5.57 % ID/g
  LNCaP Tumor: 7.79 ± 2.72 % ID/g
  Liver: 1.42 ± 0.08 % ID/g
  Lung: 3.18 ± 0.68 % ID/g
  Muscle: 0.26 ± 0.05 % ID/g
  Pancreas: 0.60 ± 0.13 % ID/g
  Spleen: 1.76 ± 0.39 % ID/g
  Stomach (% ID): 0.13 ± 0.04 % ID
[2]; 96 h after administration
  Blood: 0.63 ± 0.32 % ID/g
  Brain: 0.07 ± 0.02 % ID/g
  Heart: 0.43 ± 0.17 % ID/g
  Intestine: 0.29 ± 0.09 % ID/g
  Kidney: 4.33 ± 2.06 % ID/g
  LNCaP Tumor: 4.17 ± 0.80 % ID/g
  Liver: 0.70 ± 0.25 % ID/g
  Lung: 0.78 ± 0.29 % ID/g
  Muscle: 0.08 ± 0.03 % ID/g
  Pancreas: 0.22 ± 0.06 % ID/g
  Spleen: 0.88 ± 0.32 % ID/g
  Stomach (% ID): 0.06 ± 0.03 % ID
[2]; 192 h after administration
  Blood: 0.03 ± 0.00 % ID/g
  Brain: 0.02 ± 0.01 % ID/g
  Heart: 0.12 ± 0.02 % ID/g
  Intestine: 0.05 ± 0.01 % ID/g
  Kidney: 0.27 ± 0.02 % ID/g
  LNCaP Tumor: 1.31 ± 0.49 % ID/g
  Liver: 0.35 ± 0.04 % ID/g
  Lung: 0.12 ± 0.04 % ID/g
  Muscle: 0.01 ± 0.02 % ID/g
  Pancreas: 0.07 ± 0.01 % ID/g
  Spleen: 0.31 ± 0.11 % ID/g
  Stomach (% ID): 0.01 ± 0.00 % ID

Reference: US20240174622A1, “COMPOUND AND RADIOACTIVE LABELING COMPOUND” (NIHON MEDI-PHYSICS CO., LTD., priority 2021, published 2024)
